The source made the active and inactive calls. The rule behind the calls is not given here.
Tests used:
[1] = system: Calf thymus DNA; assay: Binding affinity to calf thymus DNA by UV-vis spectrometric analysis; format: nucleic-acid assay; conditions: Bos taurus
[2] = system: MCF7; assay: Cytotoxicity against human MCF7 cells at 10 uM after 48 hrs by SRB assay; format: functional; conditions: MCF7, 48 h, read-out: GI
[3] = Cytotoxicity against human SNB19 cells at 10 uM after 48 hrs by SRB assay; format: functional; conditions: SNB-19, 48 h, read-out: GI
[4] = system: BT-549; assay: (§1) Cytotoxicity against human BT549 cells at 10 uM after 48 hrs by SRB assay; format: functional
[5] = system: HCC 2998; assay: (§2) Cytotoxicity against human HCC2998 cells at 10 uM after 48 hrs by SRB assay; format: functional
[6] = system: ACHN; assay: Cytotoxicity against human ACHN cells at 10 uM after 48 hrs by SRB assay; format: functional; conditions: read-out: GI
[7] = system: HL-60(TB); assay: Cytotoxicity against human HL-60(TB) cells at 10 uM after 48 hrs by SRB assay; format: functional
[8] = Cytotoxicity against human COLO205 cells after 48 hrs by SRB assay; format: functional; conditions: COLO 205, 48 h, pooled result: one value given for 7 cell lines, strains, targets or settings
[9] = Cytotoxicity against human SF268 cells after 48 hrs by SRB assay; format: functional; conditions: SF-268, 48 h, pooled result: one value given for 6 cell lines, strains, targets or settings
[10] = system: UACC-62; assay: Cytotoxicity against human UACC62 cells at 10 uM after 48 hrs by SRB assay; format: functional
[11] = system: RPMI-8226; assay: (§3) Cytotoxicity against human RPMI8226 cells at 10 uM after 48 hrs by SRB assay; format: functional
[12] = system: K562; assay: Cytotoxicity against human K562 cells at 10 uM after 48 hrs by SRB assay; format: functional; conditions: K562, 48 h, read-out: GI
[13] = system: HCT-15; assay: Cytotoxicity against human HCT15 cells at 10 uM after 48 hrs by SRB assay; format: functional
[14] = system: Calf thymus DNA; assay: Binding affinity to calf thymus DNA by fluorescence spectrophotometric analysis; format: nucleic-acid assay; conditions: Bos taurus
[15] = system: A549; assay: Cytotoxicity against human A549 cells at 10 uM after 48 hrs by SRB assay; format: functional; conditions: for inhibition of growth at 10 µM: A549, 48 h, read-out: GI
[16] = system: SF-539; assay: Cytotoxicity against human SF539 cells at 10 uM after 48 hrs by SRB assay; format: functional
[17] = system: UACC-257; assay: Cytotoxicity against human UACC257 cells at 10 uM after 48 hrs by SRB assay; format: functional
[18] = system: OVCAR-5; assay: Cytotoxicity against human OVCAR5 cells at 10 uM after 48 hrs by SRB assay; format: functional
[19] = system: SK-MEL-28; assay: Cytotoxicity against human SK-MEL-28 cells at 10 uM after 48 hrs by SRB assay; format: functional
[20] = system: RXF 393; assay: Cytotoxicity against human RXF393 cells at 10 uM after 48 hrs by SRB assay; format: functional
[21] = system: M14; assay: Cytotoxicity against human M14 cells at 10 uM after 48 hrs by SRB assay; format: functional
[22] = (§4) Cytotoxicity against human OVCAR4 cells at 10 uM after 48 hrs by SRB assay; format: functional; conditions: OVCAR-4, 48 h, read-out: GI
[23] = system: OVCAR-3; assay: Cytotoxicity against human OVCAR3 cells at 10 uM after 48 hrs by SRB assay; format: functional
[24] = Cytotoxicity against human MOLT4 cells after 48 hrs by SRB assay; format: functional; conditions: MOLT-4, 48 h, read-out: LC50 (the source's name)
[25] = system: Calf thymus DNA; assay: Binding affinity to calf thymus DNA assessed as melting temperature by spectrophotometric analysis (reference value: 60 degC); format: nucleic-acid assay; conditions: Bos taurus
[26] = system: 786-0; assay: Cytotoxicity against human 786-0 cells at 10 uM after 48 hrs by SRB assay; format: functional
[27] = system: A549; assay: Cytotoxicity against human A549 cells after 48 hrs by SRB assay; format: functional; conditions: A549, 48 h, pooled result: one value given for 8 cell lines, strains, targets or settings
[28] = system: 786-0; assay: Cytotoxicity against human 786-0 cells after 48 hrs by SRB assay; format: functional; conditions: 786-0, 48 h, pooled result: one value given for 8 cell lines, strains, targets or settings
[29] = Cytotoxicity against human Hs 578T cells at 10 uM after 48 hrs by SRB assay; format: functional; conditions: read-out: GI
[30] = system: TK-10; assay: (§5) Cytotoxicity against human TK10 cells at 10 uM after 48 hrs by SRB assay; format: functional
[31] = system: SF-295; assay: Cytotoxicity against human SF295 cells at 10 uM after 48 hrs by SRB assay; format: functional
[32] = system: MDA-MB-435; assay: Cytotoxicity against human MDA-MB-435 cells at 10 uM after 48 hrs by SRB assay; format: functional; conditions: for inhibition of growth at 10 µM: MDA-MB-435, 48 h, read-out: GI
[33] = Cytotoxicity against human IGROV1 cells at 10 uM after 48 hrs by SRB assay; format: functional; conditions: IGROV-1, 48 h, read-out: GI
[34] = Cytotoxicity against human PC3 cells at 10 uM after 48 hrs by SRB assay; format: functional; conditions: PC-3, 48 h, read-out: GI
[35] = Cytotoxicity against human NCI-ADR-RES cells at 10 uM after 48 hrs by SRB assay; format: functional; conditions: read-out: GI
[36] = system: OVCAR-4; assay: as §4; format: functional
[37] = Cytotoxicity against human HOP62 cells at 10 uM after 48 hrs by SRB assay; format: functional; conditions: HOP-62, 48 h, read-out: GI
[38] = Cytotoxicity against human Caki1 cells at 10 uM after 48 hrs by SRB assay; format: functional; conditions: CAKI-1, 48 h, read-out: GI
[39] = as §1; format: functional; conditions: BT-549, 48 h, read-out: GI
[40] = system: NCI-H23; assay: Cytotoxicity against human NCI-H23 cells at 10 uM after 48 hrs by SRB assay; format: functional; conditions: NCI-H23, 48 h, read-out: GI
[41] = as §2; format: functional; conditions: HCC 2998, 48 h, read-out: GI
[42] = Cytotoxicity against human HCT116 cells at 10 uM after 48 hrs by SRB assay; format: functional; conditions: HCT-116, 48 h, read-out: GI
[43] = as §3; format: functional; conditions: RPMI-8226, 48 h, read-out: GI
[44] = Cytotoxicity against human UO31 cells at 10 uM after 48 hrs by SRB assay; format: functional; conditions: UO-31, 48 h, read-out: GI
[45] = as §5; format: functional; conditions: TK-10, 48 h, read-out: GI
[46] = Cytotoxicity against human SNB75 cells at 10 uM after 48 hrs by SRB assay; format: functional; conditions: SNB-75, 48 h, read-out: GI

## Cc1nc2cc(Nc3nc(Nc4ccc(F)cc4)nc(N4CCCC4)n3)ccc2n1Cc1ccccc1
[1]
  Ka: 5.23 ×10⁴ /M
[2]
  inhibition of growth at 10 µM: 97%
[3]
  inhibition of growth at 10 µM: 66.4%
[4]
  growth inhibition (GI): Active
[5]
  growth inhibition (GI): Active
[6]
  inhibition of growth at 10 µM: 88.5%
[7]
  growth inhibition (GI): Active
[8]
  GI50: 1.81 µM
  LC50: 6.93 µM
  TGI: 3.54 µM
[9]
  GI50: 2.08 µM
  LC50 (concentration killing 50% of cells): 8.64 µM
  TGI: 17.6 µM
[10]
  growth inhibition (GI): Active
[11]
  growth inhibition (GI): Active
[12]
  inhibition of growth at 10 µM: 100%
[13]
  growth inhibition (GI): Active
[14]
  Ka: 5.46 ×10⁴ /M
[15]
  growth inhibition (GI): Active
[16]
  growth inhibition (GI): Active
[17]
  growth inhibition (GI): Active
[18]
  growth inhibition (GI): Active
[19]
  growth inhibition (GI): Active
[20]
  growth inhibition (GI): Active
[21]
  growth inhibition (GI): Active
[22]
  inhibition of growth at 10 µM: 95.2%
[23]
  growth inhibition (GI): Active
[24]
  CC50: > 100 µM
[25]
  Tm: 71.5 °C
[26]
  growth inhibition (GI): Active
[27]
  GI50: 1.82 µM
  LC50: 14.5 µM
  TGI: 4.02 µM
[28]
  GI50: 1.75 µM
  LC50 (concentration killing 50% of cells): 1.26 µM
  TGI: 3.56 µM
[29]
  inhibition of growth at 10 µM: 69.4%
[30]
  growth inhibition (GI): Active
[31]
  growth inhibition (GI): Active
[32]
  growth inhibition (GI): Active

## Cc1nc2cc(Nc3nc(Nc4ccc(F)cc4)nc(N4CCN(C)CC4)n3)ccc2n1Cc1ccccc1
[1]
  Ka: 2.92 ×10⁴ /M
[2]
  inhibition of growth at 10 µM: 82.1%
[3]
  inhibition of growth at 10 µM: 55.8%
[4]
  growth inhibition (GI): Active
[5]
  growth inhibition (GI): Active
[33]
  inhibition of growth at 10 µM: 75.4%
[6]
  inhibition of growth at 10 µM: 90.3%
[7]
  growth inhibition (GI): Active
[34]
  inhibition of growth at 10 µM: 80.3%
[8]
  GI50: 1.66 µM
  LC50: 7.15 µM
  TGI: 3.44 µM
[9]
  GI50: 1.77 µM
  LC50 (concentration killing 50% of cells): 10.8 µM
  TGI: 3.94 µM
[10]
  growth inhibition (GI): Active
[11]
  growth inhibition (GI): Active
[12]
  inhibition of growth at 10 µM: 99.6%
[13]
  growth inhibition (GI): Active
[14]
  Ka: 3.36 ×10⁴ /M
[15]
  inhibition of growth at 10 µM: 92.8%
[16]
  growth inhibition (GI): Active
[17]
  growth inhibition (GI): Active
[19]
  growth inhibition (GI): Active
[20]
  growth inhibition (GI): Active
[35]
  inhibition of growth at 10 µM: 56.9%
[21]
  growth inhibition (GI): Active
[36]
  growth inhibition (GI): Active
[23]
  growth inhibition (GI): Active
[24]
  CC50: 8.47 µM
[25]
  Tm: 65.6 °C
[26]
  growth inhibition (GI): Active
[27]
  GI50: 1.84 µM
  LC50: 7.52 µM
  TGI: 3.86 µM
[37]
  inhibition of growth at 10 µM: 41.8%
[28]
  GI50: 1.77 µM
  LC50 (concentration killing 50% of cells): 9.66 µM
  TGI: 3.81 µM
[38]
  inhibition of growth at 10 µM: 81.4%
[30]
  growth inhibition (GI): Active
[31]
  growth inhibition (GI): Active
[32]
  inhibition of growth at 10 µM: 99.8%

## Cc1nc2ccc(Nc3nc(NCCN4CCOCC4)nc(Nc4ccc(F)cc4)n3)cc2n1Cc1ccccc1
[1]
  Ka: 7.19 ×10⁴ /M
[2]
  inhibition of growth at 10 µM: 66.4%
[3]
  inhibition of growth at 10 µM: 21.3%
[39]
  inhibition of growth at 10 µM: 50.1%
[40]
  inhibition of growth at 10 µM: 33%
[41]
  inhibition of growth at 10 µM: 55.4%
[33]
  inhibition of growth at 10 µM: 31%
[6]
  inhibition of growth at 10 µM: 47.8%
[34]
  inhibition of growth at 10 µM: 28.5%
[8]
  GI50: 2.6 µM
  LC50: 24 µM
  TGI: 8.51 µM
[9]
  GI50: 2.72 µM
  LC50 (concentration killing 50% of cells): 15.3 µM
  TGI: 12 µM
[42]
  inhibition of growth at 10 µM: 72.1%
[10]
  growth inhibition (GI): Active
[43]
  inhibition of growth at 10 µM: 96.9%
[12]
  inhibition of growth at 10 µM: 97%
[13]
  growth inhibition (GI): Active
[14]
  Ka: 8.58 ×10⁴ /M
[15]
  inhibition of growth at 10 µM: 53.7%
[17]
  growth inhibition (GI): Active
[19]
  growth inhibition (GI): Active
[21]
  growth inhibition (GI): Active
[44]
  inhibition of growth at 10 µM: 62.7%
[22]
  inhibition of growth at 10 µM: 1.85%
[24]
  CC50: 55 µM
[25]
  Tm: 80.1 °C
[26]; 786-0, 48 h, read-out: GI
  inhibition of growth at 10 µM: 95.8%
[27]
  GI50: 3.21 µM
  LC50: 38.5 µM
  TGI: 18.5 µM
[37]
  inhibition of growth at 10 µM: 52.2%
[28]
  GI50: 3.03 µM
  LC50 (concentration killing 50% of cells): 14.6 µM
  TGI: 19.3 µM
[38]
  inhibition of growth at 10 µM: 44.4%
[29]
  inhibition of growth at 10 µM: 59.4%
[45]
  inhibition of growth at 10 µM: 39.4%
[31]
  growth inhibition (GI): Active
[32]
  inhibition of growth at 10 µM: 47.8%
[46]
  inhibition of growth at 10 µM: 49.4%
